Here are results for 30 compounds from US11629135B2 (JUBILANT PRODEL LLC, priority 2017, dated 2023).

T1 sequence (Q9NZQ7 19-238 limits assumed): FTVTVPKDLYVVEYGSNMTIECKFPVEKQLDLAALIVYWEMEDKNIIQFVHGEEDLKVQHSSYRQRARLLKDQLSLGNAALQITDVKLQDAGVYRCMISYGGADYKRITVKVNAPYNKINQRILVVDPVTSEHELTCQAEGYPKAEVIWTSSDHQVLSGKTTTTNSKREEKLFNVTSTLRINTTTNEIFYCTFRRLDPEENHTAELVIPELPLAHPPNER

This test has as its target T1, PD-1/PD-L1 interaction (Homo sapiens, UniProt Q9NZQ7).
T1 construct: Tag1 or Tag2 (undisclosed kit tag); purchased CisBio 63ADK000CPAPEG
Description: PD-1/PD-L1 Homogenous Time-Resolved Fluorescence (HTRF) binding assay. The settings on record: Biochemical PD1/PD-L1 inhibition. Here is the method: PD-L1 Enzyme Assay: Homogenous Time-Resolved Fluorescence (HTRF) Binding Assay
All binding studies were performed using PD-1/PD-L1 Binding Assay Kit from CisBio (Catalog #63ADK000CPAPEG), according to the manufacturer's protocol. The interaction between Tag1-PD-1 and […] was detected by anti-Tag1-Eu^3+ (HTRF donor) and anti-Tag2-XL665 (HTRF acceptor). When the donor and acceptor antibodies were brought to close proximity due to PD-1 and PD-L1 binding, excitation of the donor antibody triggered fluorescent resonance energy transfer (FRET) towards the acceptor antibody, which in turn emitted specifically at 665 nm. This specific signal is positively proportional to PD-1/PD-L1 interaction. The compounds blocking PD-1/PD-L1 interaction will cause a reduction in HTRF signal. The necessary reagents were mixed in the following order: 2 μl compounds (or diluents buffer), 4 μl PD-L1 protein, 4 μl PD-1 protein. After an incubation of 15 minutes, 5 μl of anti-Tag1-Eu^3+ and 5 μl of anti-Tag2-XL665 were added. The plate was sealed and incubated at RT for 1 h. The fluorescence emission was read at two different wavelengths (665 nm and 620 nm) on a BMG PheraStar® multiplate reader. Results were calculated from the 665 nm and 620 nm fluorescence signal and expressed in HTRF ratio=(665 nm/620 nm)×[…].
For orientation: IC50 means the point on the concentration scale where inhibition reaches its midpoint. High values mean lower potency, low ones higher potency. Compound `CC(=O)NCCNCc1cnc(OCc2cccc(-c3ccccc3)c2C)nc1C` [Compound 65, N-(2-(((4-methyl-2-((2-methyl-[1,1′-biphenyl]-3-yl)methoxy)pyrimidin-5-yl)methyl)amino)ethyl)acetamide] yielded an IC50 of 100 to 500 nM.
The value for `COc1nc(OCc2cccc(-c3ccccc3)c2C)ncc1CN1CCCC[C@H]1C(=O)O` [Compound 7, (S)-1-((4-methoxy-2-((2-methyl-[1,1′-biphenyl]-3-yl)methoxy)pyrimidin-5-yl)methyl)piperidine-2-carboxylic acid] was less than 100 nM; that for `COc1nc(OCc2cccc(-c3ccccc3)c2C)ncc1CNCCNC(C)=O` [Compound 14, N-(2-(((4-methoxy-2-((2-methyl-[1,1′-biphenyl]-3-yl)methoxy)pyrimidin-5-yl)methyl)amino)ethyl)acetamide] was 100 to 500 nM.
The value for `COc1nc(OCc2cccc(-c3cccc(F)c3)c2C)ncc1CN1CCCC[C@H]1C(=O)O` [Compound 17, (S)-1-((2-((3′-fluoro-2-methyl-[1,1′-biphenyl]-3-yl)methoxy)-4-methoxypyrimidin-5-yl)methyl)piperidine-2-carboxylic acid] was 100 to 500 nM; that for `COc1nc(OCc2cccc(-c3ccccc3)c2C)nc(OC)c1CN1CCC[C@@H]2C[C@@]21C(=O)O` (single isomer, unassigned) [Compound 5] was 100 to 500 nM; that for `COc1nc(OCc2cccc(-c3cccc(F)c3)c2C)ncc1CNCCNC(C)=O` [Compound 18, N-(2-(((2-((3′-fluoro-2-methyl-[1,1′-biphenyl]-3-yl)methoxy)-4-methoxypyrimidin-5-yl)methyl)amino)ethyl)acetamide] was 100 to 500 nM.
The value for `CCOc1nc(OCc2cccc(-c3ccccc3)c2C)nc(OCC)c1CNC(CO)(CO)CO` [Compound 41, 2-(((4,6-diethoxy-2-((2-methyl-[1,1′-biphenyl]-3-yl)methoxy)pyrimidin-5-yl)methyl)amino)-2-(hydroxymethyl)propane-1,3-diol] was 100 to 500 nM; that for `Cc1c(COc2ncc(CN3CCCC[C@H]3C(=O)O)c(OCC(F)(F)F)n2)cccc1-c1ccccc1` [Compound 9, (S)-1-((2-((2-methyl-[1,1′-biphenyl]-3-yl)methoxy)-4-(2,2,2-trifluoroethoxy)pyrimidin-5-yl)methyl)piperidine-2-carboxylic acid] was more than 500 nM; that for `CC(=O)NCCNCc1cnc(OCc2cccc(-c3ccccc3)c2C)nc1OCc1ccc(F)c(C#N)c1` [Compound 53, N-(2-(((4-((3-cyano-4-fluorobenzyl)oxy)-2-((2-methyl-[1,1′-biphenyl]-3-yl)methoxy)pyrimidin-5-yl)methyl)amino)ethyl)acetamide] was more than 500 nM.
In turn, `CCOc1nc(OCc2cccc(-c3ccccc3)c2C)ncc1CNCCNC(C)=O` [Compound 21, N-(2-(((4-ethoxy-2-((2-methyl-[1,1′-biphenyl]-3-yl)methoxy)pyrimidin-5-yl)methyl)amino)ethyl)acetamide] yielded an IC50 of more than 500 nM.
The value for `COc1nc(OCc2cccc(-c3ccccc3)c2C)nc(OC)c1CN1CCCC2C[C@]21C(=O)O` (single isomer, unassigned) [Compound 4] was less than 100 nM.
`CCOc1nc(OCc2cccc(-c3ccccc3)c2C)ncc1CN1C[C@H](O)CC1C(=O)O` (stereo in doubt) [Compound 30, (2R,4R)-1-((4-ethoxy-2-((2-methyl-[1,1′-biphenyl]-3-yl)methoxy)pyrimidin-5-yl)methyl)-4-hydroxypyrrolidine-2-carboxylic acid] gave an IC50 of 100 to 500 nM.
The value for `COc1nc(OCc2cccc(-c3ccccc3)c2C)nc(OC)c1CN1CCOC[C@H]1C(=O)O` [Compound 43, (S)-4-((4,6-dimethoxy-2-((2-methyl-[1,1′-biphenyl]-3-yl)methoxy)pyrimidin-5-yl)methyl)morpholine-3-carboxylic acid] was less than 100 nM; that for `CCOc1nc(OCc2cccc(-c3ccccc3)c2C)ncc1CN[C@H](C)C(=O)O` [Compound 28, ((4-ethoxy-2-((2-methyl-[1,1′-biphenyl]-3-yl)methoxy)pyrimidin-5-yl)methyl)-D-alanine] was 100 to 500 nM; that for `CCOc1nc(OCc2cccc(-c3ccccc3)c2C)ncc1CNCCC(=O)O` [Compound 24] was more than 500 nM.
The value for `Cc1c(COc2ncc(CN3CCCC[C@H]3C(=O)O)c(OCc3cncc(C#N)c3)n2)cccc1-c1ccccc1` [Compound 12, (S)-1-((4-((5-cyanopyridin-3-yl)methoxy)-2-((2-methyl-[1,1′-biphenyl]-3-yl)methoxy)pyrimidin-5-yl)methyl)piperidine-2-carboxylic acid] was more than 500 nM; that for `COc1nc(OCc2cccc(-c3ccccc3)c2C)nc(OC)c1CNCCNC(C)=O` [Compound 3, N-(2-(((4,6-dimethoxy-2-((2-methyl-[1,1′-biphenyl]-3-yl)methoxy)pyrimidin-5-yl)methyl)amino)ethyl)acetamide] was less than 100 nM.
The value for `COc1nc(OCc2cccc(-c3ccccc3)c2C)ncc1CN1CC2(CC2)C[C@H]1C(=O)O` [Compound 51, (S)-5-((4-methoxy-2-((2-methyl-[1,1′-biphenyl]-3-yl)methoxy)pyrimidin-5-yl)methyl)-5-azaspiro[2.4]heptane-6-carboxylic acid] was more than 500 nM; that for `Cc1c(COc2ncc(CN3C[C@H](O)C[C@H]3C(=O)O)c(OCc3cncc(C#N)c3)n2)cccc1-c1ccccc1` [Compound 59, (2S,4R)-1-((4-((5-cyanopyridin-3-yl)methoxy)-2-((2-methyl-[1,1′-biphenyl]-3-yl)methoxy)pyrimidin-5-yl)methyl)-4-hydroxypyrrolidine-2-carboxylic acid] was more than 500 nM.
`CCOc1nc(OCc2cccc(-c3ccccc3)c2C)ncc1CN[C@@H](C)CC(=O)O` [Compound 27, (S)-3-(((4-ethoxy-2-((2-methyl-[1,1′-biphenyl]-3-yl)methoxy)pyrimidin-5-yl)methyl)amino)butanoic acid] gave an IC50 of more than 500 nM.
`CCOc1nc(OCc2cccc(-c3ccccc3)c2C)nc(OCC)c1CNCCNC(C)=O` [Compound 6, N-(2-(((4,6-diethoxy-2-((2-methyl-[1,1′-biphenyl]-3-yl)methoxy)pyrimidin-5-yl)methyl)amino)ethyl)acetamide] showed an IC50 of 100 to 500 nM.
For `COc1nc(OCc2cccc(-c3ccccc3)c2C)nc(OC)c1CN1CCCC2(CCNC2=O)C1` (stereo not drawn) [Compound 47, 7-((4,6-dimethoxy-2-((2-methyl-[1,1′-biphenyl]-3-yl)methoxy)pyrimidin-5-yl)methyl)-2,7-diazaspiro[4.5]decan-1-one], the IC50 is less than 100 nM.
With `COc1nc(OCc2cccc(-c3ccccc3)c2C)ncc1CN1CCN(C(C)=O)C[C@H]1C(=O)O` [Compound 49, (S)-4-acetyl-1-((4-methoxy-2-((2-methyl-[1,1′-biphenyl]-3-yl)methoxy)pyrimidin-5-yl)methyl)piperazine-2-carboxylic acid], the IC50 is more than 500 nM.
Regarding `CCOc1nc(OCc2cccc(-c3ccccc3)c2C)ncc1CNC(CO)(CO)CO` [Compound 25, 2-(((4-ethoxy-2-((2-methyl-[1,1′-biphenyl]-3-yl)methoxy)pyrimidin-5-yl)methyl)amino)-2-(hydroxymethyl)propane-1,3-diol], the IC50 is less than 100 nM.
Take `COc1nc(OCc2cccc(-c3ccccc3)c2C)nc(OC)c1CN1CC2(CC2)C[C@H]1C(=O)O` [Compound 46, (S)-5-((4,6-dimethoxy-2-((2-methyl-[1,1′-biphenyl]-3-yl)methoxy)pyrimidin-5-yl)methyl)-5-azaspiro[2.4]heptane-6-carboxylic acid]: the IC50 is less than 100 nM.
In the case of `COc1nc(OCc2cccc(-c3cccc(OCCCN4CCC(F)(F)C4)c3C)c2C)ncc1CN1CCCC[C@H]1C(=O)O` [Compound 13, (S)-1-((2-((3′-(3-(3,3-difluoropyrrolidin-1-yl)propoxy)-2,2′-dimethyl-[1,1′-biphenyl]-3-yl)methoxy)-4-methoxypyrimidin-5-yl)methyl)piperidine-2-carboxylic acid], the IC50 lay within 100 to 500 nM.
The value for `COc1nc(OCc2cccc(-c3ccc(F)cc3)c2C)ncc1CNCCNC(C)=O` [Compound 1, N-(2-(((2-((4′-fluoro-2-methyl-[1,1′-biphenyl]-3-yl)methoxy)-4-methoxypyrimidin-5-yl)methyl)amino)ethyl)acetamide] was more than 500 nM; that for `Cc1nc(OCc2cccc(-c3ccccc3)c2C)ncc1CN1CCCC[C@H]1C(=O)O` [Compound 64, (S)-1-((4-methyl-2-((2-methyl-[1,1′-biphenyl]-3-yl)methoxy)pyrimidin-5-yl)methyl)piperidine-2-carboxylic acid] was less than 100 nM.
On to `COc1nc(OCc2cccc(-c3ccccc3)c2C)ncc1CN1CCNC[C@H]1C(=O)O` [Compound 50, (S)-1-((4-methoxy-2-((2-methyl-[1,1′-biphenyl]-3-yl)methoxy)pyrimidin-5-yl)methyl)piperazine-2-carboxylic acid], for which the IC50 was more than 500 nM.
The value for `COc1nc(OCc2cccc(-c3ccccc3)c2C)nc(OC)c1CN1CCOCC1CC(=O)O` (stereo not drawn) [Compound 44, 2-(4-((4,6-dimethoxy-2-((2-methyl-[1,1′-biphenyl]-3-yl)methoxy)pyrimidin-5-yl)methyl)morpholin-3-yl)acetic acid] was 100 to 500 nM.
